The values below come from patent US5380732A, “Pesticidal compounds” (priority 1986, dated 1995).

Holding throughout (assay type): in vivo
In one assay the test system is Musca domestica. The experiment in a line: spray onto 20 female Musca, mortality after 2 days (Example C). The following applies: 25° C. As for the experimental part: (§1) The compounds of the invention were tested by dissolving them in acetone (5%) and then diluting in water/`Synperonic` (94.5%/0.5%) to give a water emulsion. ("Synperonic" is a R.T.M. of I.C.I. plc and is nonylphenol ethoxylate in aqueous solution to give 27%; available from B.D.H., Poole, Dorset, England). The solution was then used to treat the following insects.
20 female Musca were contained in a cardboard cylinder with gauze over either end. Solution containing the compound was sprayed onto the insects so enclosed and mortality assessed after 2 days at 25° C.

The test system of a further assay is Sitophilus granarius. As to the kind of experiment: adults on treated wheat, mortality after 6 days, Sitophilus (Example C). The following applies: 25° C. The procedure:
as §1
20 adult Sitophilus and Tribolium were added to 10 g wheat which had been previously treated with 2 ml of the solution containing the compound. Mortality was assessed after 6 days at 25° C.

Another assay has as its system Tetranychus urticae. The experiment in a line: leaf discs of infested french bean sprayed (Example C). The following applies: 2 days, 25° C. As for the experimental part:
as §1
Leaf discs of infested french bean were sprayed with the solution containing the compound. Mortality was assessed after 2 days at 25° C.

Assay [1] concerns Plutella xylostella. The experiment in a line: fourth instar Plutella larvae sprayed and added to sprayed chinese cabbage leaf (Example C). The following applies: 2 days, 25° C. The procedure: as §1
7 Fourth instar Plutella larvae were sprayea with the solution containing the compound and added to a chinese cabbage leaf which had been similarly sprayed and left to dry. Mortality was assessed after 2 days at 25° C.

The test system of another assay is Myzus persicae. The experiment in a line: adult Myzus on chinese cabbage leaf disc sprayed (Example C). The following applies: 2 days, 25° C. As for the experimental part: as §1
10 adult Myzus were placed on a leaf disc of chinese cabbage. 24 hours later the disc was sprayed with the solution containing the compound. Mortality was assessed after 2 days at 25° C.

In assay [2] the test system is Plutella xylostella. As to the kind of experiment: discs of chinese cabbage infested with second instar Plutella larvae sprayed (Example C). The following applies: 2 days, 25° C. The procedure:
as §1
or Discs of chinese cabbage infested with c8 second instar Plutella larvae were sprayed with the solution containing the compound. Mortality was assessed after 2 days at 25° C.

The test system of the next assay is Spodoptera littoralis. The experiment in a line: injection into fifth instar Spodoptera littoralis larvae (Example D). The following applies: 5% solution in DMSO/acetone (50:50), 1.0 ul injected, 2 days, 25° C. The procedure:
The compounds of the invention were also tested by dissolving them in DMSO/acetone (50:50) to give a 5% solution, 1.0 ul of which was injected into fifth instar Spodoptera littoralis larvae. Mortality was assessed after 2 days at 25° C.

The next assay has as its system Blatella germanica. The experiment in a line: activity against Blatella germanica with piperonyl butoxide. The following applies: at up to 10 μg per insect (+piperonyl butoxide).

As to `C=C(C)CNC(=O)C=CC=CCCCCCCCOc1cc(C(F)(F)F)cc(C(F)(F)F)n1` [Example 21], the “active (mortality)” value in the assay with Musca domestica (at 200 ppm), in the assay on Sitophilus granarius and in the assay with Tetranychus urticae (at 1000 ppm) was “active” throughout. As to `CC(C)C(C)NC(=O)C=CC=CCCCCCCCOc1cncc(Cl)c1` (stereo not drawn) [Example 24], the “active (mortality)” value in the assay on Plutella xylostella [1] (at 1000 ppm) is reported as “active”. For the compound `CC(C)CNC(=O)C=CC=CCCCCCCCOc1ccc(C(F)(F)F)cn1` [Example 6], the “active (mortality)” value in the assay on Musca domestica (at 1000 ppm) was “active”. With `CC(C)CNC(=O)C=CC=CCCCCCCCOc1ccccn1` [Example 15], the “active (mortality)” value in the assay with Myzus persicae (at 200 ppm) is on record as “active”. `CC(C=CCCCCCCCOc1cccc(Cl)n1)=CC(=O)NCC(C)C` [Example 9]: the “active (mortality)” value with Musca domestica (at 1000 ppm), in the assay on Tetranychus urticae (at 200 ppm) and in the assay on Plutella xylostella [1] (at 200 ppm) was “active” in each case. Regarding `CC(C)CNC(=O)/C=C/C=C/CCCCCCCOc1cc(C(F)(F)F)nc(C(F)(F)F)c1` [Example 35, (2E,4E) N-Isobutyl 12-(2',6'-bistrifluoromethyl-4'-pyridyloxy)-dodeca-2,4-dienamide], the “active (mortality)” value in the assay on Plutella xylostella [2] (at 200 ppm), in the assay with Musca domestica (at 1000 ppm), in the assay with Sitophilus granarius and in the assay on Spodoptera littoralis was “active” throughout. As for `CC(C)CNC(=O)C=CC=CCCCCCCCOc1cccnc1Br` [Example 28], in the assay on Tetranychus urticae (at 1000 ppm), the “active (mortality)” value was “active”. Take `CC(C)CNC(=O)C=CC=CCCCCCCCOc1cncc(Cl)c1` [Example 25]: the “active (mortality)” value with Tetranychus urticae (at 200 ppm) is “active”. As for `CC(C)CNC(=O)C=CC=CCCCCCCCOc1ncccc1C(F)(F)F` [Example 7], the “active (mortality)” value with Plutella xylostella [1] (at 1000 ppm) and in the assay on Spodoptera littoralis was “active” throughout. In the case of `CC(C=CCCCCCCCOc1ccc(Cl)cn1)=CC(=O)NCC(C)C` [Example 18], the “active (mortality)” value with Musca domestica (at 1000 ppm), with Tetranychus urticae (at 1000 ppm), with Plutella xylostella [1] (at 1000 ppm) and in the assay on Myzus persicae (at 1000 ppm) was “active” throughout. Turning to `CCC(C)NC(=O)C=C(C)C=CCCCCCCCOc1ncccc1Cl` (stereo not drawn) [Example 13], the “active (mortality)” value in the assay on Myzus persicae (at 200 ppm) is on record as “active”. In the case of `CC(C=CCCCCCCCOc1cccnc1Br)=CC(=O)NCC(C)C` [Example 29], the “active (mortality)” value in the assay on Tetranychus urticae (at 1000 ppm) and in the assay with Spodoptera littoralis was “active” throughout. In the case of `CC(C)CNC(=O)C=CC=CCCCCCCCOc1nc(C(F)(F)F)ccc1C(F)(F)F` [Example 20], the “active (mortality)” value in the assay with Plutella xylostella [2] (at 200 ppm) is given as “active”. For the compound “(2E,4E) N-Isobutyl 12-(4'-chloro-2'-pyrimidyloxy)-dodeca-2,4-dienamide and (2E,4E) N-Isobutyl 12-(2'-chloro-4-pyrimidyloxy)-dodeca-2,4-dienamide [Example 32]”, the “active (mortality)” value in the assay with Tetranychus urticae (at 1000 ppm) is reported as “active”. The same measure, in the same setting: to “(2E,4E) N-1-Methylpropyl 12-(4'-chloro-2-pyrimidyloxy) dodeca-2,4-dienamide and (2E,4E) N-1-Methylpropyl 12-(2-chloro-4'-pyrimidyloxy) -dodeca-2,4-dienamide [Example 34]” belongs “active”. Take `CC(C=CCCCCCCCOc1cc(C(F)(F)F)cc(C(F)(F)F)n1)=CC(=O)NCC(C)C` [Example 23]: the “active (mortality)” value in the assay with Musca domestica (at 1000 ppm) and in the assay with Tetranychus urticae (at 1000 ppm) was “active” each time. With `CC(C=CCCCCCCCOc1cccc(C(F)(F)F)n1)=CC(=O)NCC(C)C` [Example 8], the “active (mortality)” value in the assay with Musca domestica (at 1000 ppm), in the assay with Tetranychus urticae (at 200 ppm), in the assay with Plutella xylostella [1] (at 200 ppm) and with Spodoptera littoralis was “active” each time. With `CC(C)CNC(=O)C=CC=CCCCCCCCOc1cc(C(F)(F)F)cc(Cl)n1` [Example 10], the “active (mortality)” value with Musca domestica (at 1000 ppm) and in the assay with Sitophilus granarius was “active” in each case. With `CC(C=CCCCCCCCOc1cc(C(F)(F)F)cc(Cl)n1)=CC(=O)NCC(C)C` [Example 11], the “active (mortality)” value in the assay on Musca domestica (at 1000 ppm), in the assay on Tetranychus urticae (at 1000 ppm), with Plutella xylostella [1] (at 1000 ppm) and in the assay with Spodoptera littoralis was “active” in each case. With `CC(C)CNC(=O)/C=C/C=C/CCCCCCCOc1cccc(C(F)(F)F)n1` [Example 3, (2E,4E) N-isobutyl 12-(6trifluoromethyl-2'-pyridyloxy) dodeca-2,4-dienamide], the “active (mortality)” value in the assay with Musca domestica (at 200 ppm) and in the assay with Tetranychus urticae (at 1000 ppm) was “active” in each case. For the compound `CC(C)CNC(=O)/C=C/C=C/CCCCCCCOc1cc(C(F)(F)F)cc(C(F)(F)F)n1` [Example 19, (2E,4E) N-isobutyl 12-(4',6'-bistrifluoromethyl-2'-pyridyloxy) -dodeca-2,4-dienamide], the “active (mortality)” value in the assay with Plutella xylostella [2] (at 200 ppm), with Musca domestica (at 200 ppm) and in the assay with Sitophilus granarius was “active” throughout. Take `CC(/C=C/CCCCCCOCc1cccc(Cl)n1)=C\C(=O)NCC(C)C` [Example 36, (2E,4E) N-Isobutyl 11-(6'-chloro-2'-pyridylmethoxy) -3-methylundeca-2,4-dienamide]: the “active (mortality)” value in the assay on Plutella xylostella [2] (at 1000 ppm) and with Tetranychus urticae (at 1000 ppm) was “active” each time. With `CC(/C=C/CCCCCCCOc1ncc(C(F)(F)F)cc1Cl)=C(/F)C(=O)NCC(C)C` [Example 39, (2Z,4E)N-Isobutyl 2-fluoro-3-methyl-12-(3-chloro-5-trifluoromethyl-2-pyridyloxy) dodeca-2,4-dienamide], in the assay with Blatella germanica, the active entry is on record as “active”. With “(2E/Z,4E) N-Isobutyl 3-methyl-12-(4-chloro-2'-pyrimidyloxy) -dodeca-2,4-dienamide and (2E/Z,4E) N-Isobutyl 3-methyl-12-(2-chloro-4'-pyrimidyloxy) -dodeca-2,4-dienamide [Example 33]”, the “active (mortality)” value in the assay on Myzus persicae (at 1000 ppm) was “active”. Regarding `CC(C)CNC(=O)C=CC=CCCCCCCCOc1ncccc1Cl` [Example 12], the “active (mortality)” value in the assay on Myzus persicae (at 1000 ppm) was “active”. As for `CCC(C)NC(=O)C=CC=CCCCCCCCOc1cccc(C(F)(F)F)n1` (stereo not drawn) [Example 4], the “active (mortality)” value in the assay on Musca domestica (at 200 ppm) and with Tetranychus urticae (at 1000 ppm) was “active” each time. Regarding `CC1(CNC(=O)/C=C/C=C/CCCCCCCOc2cc(C(F)(F)F)cc(C(F)(F)F)n2)OCCO1` [Example 22, (2E,4E) N-(2-methyl-1,3-dioxalan-2-yl)-methyl 12-(4',6'-bistrifluoromethyl-2-pyridyloxy)-dodeca-2,4-dienamide], the “active (mortality)” value with Musca domestica (at 200 ppm) and with Sitophilus granarius was “active” each time.

Turning to `CC(C=CCCCCCCCOc1cccnc1Cl)=CC(=O)NC(C)C(C)C` (stereo not drawn) [Example 27], the “active (mortality)” value in the assay on Tetranychus urticae (at 1000 ppm) is listed as “active”. In the case of `CCC(C)NC(=O)C=CC=CCCCCCCCOc1ccccn1` (stereo not drawn) [Example 16], the “active (mortality)” value in the assay on Musca domestica (at 1000 ppm) and in the assay with Myzus persicae (at 200 ppm) was “active” throughout. With `CC(C)CNC(=O)C=CC=CCCCCCOc1cccc(Cl)n1` [Example 14], the “active (mortality)” value in the assay with Myzus persicae (at 1000 ppm) is recorded as “active”. Consider `CC(C)CNC(=O)/C=C/C=C/CCCCCCCOc1ccncc1` [Example 31, (2E,4E) N-Isobutyl 12-(4'-pyridyloxy)-dodeca-2,4-dienamide], for which the “active (mortality)” value in the assay with Sitophilus granarius and in the assay on Myzus persicae (at 1000 ppm) was “active” each time. Turning to `CCC(C)NC(=O)/C=C/C=C/CCCCCCCOc1ccncc1` (stereo not drawn) [Example 30, (2E,4E) -N-(1-methylpropyl) 12-(4'-pyridyloxy)dodeca-2,4-dienamide], the “active (mortality)” value with Myzus persicae (at 1000 ppm) is recorded as “active”.
